Earlier results as cited in article PMC4744661 (Diabetes/Metabolism Research and Reviews, 2015).

Tested on: gastric emptying
Settings: healthy volunteers and patients with T2DM

Substance | effect on gastric emptying / acetaminophen exposure
liraglutide (HAEGTFTSDVSSYLEGQAAKEFIAWLVRGRG; chains of the INN, looked up) | equivalent effects on acetaminophen exposure
exenatide [exenatide BID] | substantially slowed gastric emptying
